Organism: Rattus norvegicus
Assay: Open TG-GATES - Regimen: Daily Repeat
Type: toxicity, organism-based, Sprague-Dawley
Parameters: regimen Daily Repeat, gender Male, age 6 weeks
Conditions: in vivo, po, route gavage; for TG / TP / gamma-GTP / ALT / AST / CRE / Ca / Cl / DBIL / GLC / IP / K / LDH / RALB / TBIL / ALP / TC: tissue Plasma; for KIDNEY_L / KIDNEY_R / KIDNEY_TOTAL: tissue Kidney
[1] = 30 mg/kg, […], dose level Middle, time 28 day
[2] = 100 mg/kg, 72 h, dose level High, time 3 day
[3] = 100 mg/kg, 72 h, tissue Blood, dose level High, time 3 day
[4] = 100 mg/kg, […], dose level High, time 7 day
[5] = 100 mg/kg, […], dose level High, time 14 day
[6] = 100 mg/kg, […], dose level High, time 28 day
[7] = 100 mg/kg, […], tissue Blood, dose level High, time 7 day
[8] = 100 mg/kg, […], tissue Blood, dose level High, time 14 day
[9] = 100 mg/kg, […], tissue Blood, dose level High, time 28 day

Cn1c(=O)c2c(ncn2C)n(C)c1=O [CAFFEINE]
TG [1]: 88.6 mg/dL | TP [1]: 6.1 g/dL | gamma-GTP [1]: 2 IU/L | TERMINAL_BW [2]: 205.8 g | APTT [3]: 22.4 s | Bas [3]: 0% | Eos [3]: 1% | Fbg [3]: 319.6 mg/dL | Lym [3]: 74.4% | MCHC [3]: 33.8% | MCV [3]: 60.6 fL | Mono [3]: 1.6% | Neu [3]: 22.4% | PT [3]: 15.8 s | Plat [3]: 126.2 x10_4/uL | RBC [3]: 686 x10_4/ul | Ret [3]: 4.3% | WBC [3]: 81.5 x10_2/uL | KIDNEY_L [2]: 0.9 g | KIDNEY_R [2]: 0.9 g | KIDNEY_TOTAL [2]: 1.8 g | ALT [2]: 38 IU/L | AST [2]: 70.2 IU/L | CRE [2]: 0.2 mg/dL | Ca [2]: 10.8 mg/dL | Cl [2]: 108.6 meq/L | DBIL [2]: 0 mg/dL | GLC [2]: 169.6 mg/dL | IP [2]: 8.9 mg/dL | K [2]: 4.4 meq/L | LDH [2]: 159.6 IU/L | RALB [2]: 3.2 g/dL | TBIL [2]: 0.018 mg/dL | TG [2]: 43 mg/dL | TP [2]: 5.8 g/dL | gamma-GTP [2]: 1 IU/L | TERMINAL_BW [4]: 226.6 g | TERMINAL_BW [5]: 270 g | TERMINAL_BW [6]: 302.8 g | APTT [7]: 22.8 s | Bas [7]: 0% | Eos [7]: 1% | Fbg [7]: 321.8 mg/dL | Lym [7]: 80.8% | MCHC [7]: 34% | MCV [7]: 60.4 fL | Mono [7]: 2% | Neu [7]: 15.2% | PT [7]: 15.3 s | Plat [7]: 109.2 x10_4/uL | RBC [7]: 705.4 x10_4/ul | Ret [7]: 4.8% | WBC [7]: 100.2 x10_2/uL | APTT [8]: 24.3 s | Bas [8]: 0% | Eos [8]: 0.4% | Fbg [8]: 320.6 mg/dL | Ht [8]: 44.2% | Lym [8]: 80% | MCH [8]: 20.1 pg | MCV [8]: 58.9 fL | Mono [8]: 2% | Neu [8]: 16.6% | PT [8]: 15.5 s | Plat [8]: 110.4 x10_4/uL | RBC [8]: 750.4 x10_4/ul | Ret [8]: 3.5% | WBC [8]: 105.7 x10_2/uL | APTT [9]: 23.7 s | Bas [9]: 0% | Eos [9]: 1% | Fbg [9]: 308.2 mg/dL | Lym [9]: 75.6% | MCH [9]: 19.1 pg | MCHC [9]: 34.9% | MCV [9]: 54.8 fL | Mono [9]: 2.8% | Neu [9]: 18.8% | PT [9]: 15.9 s | Plat [9]: 97.1 x10_4/uL | RBC [9]: 829 x10_4/ul | Ret [9]: 2.1% | WBC [9]: 98.3 x10_2/uL | KIDNEY_L [4]: 1 g | KIDNEY_R [4]: 1 g | KIDNEY_TOTAL [4]: 2 g | KIDNEY_L [5]: 1.2 g | KIDNEY_R [5]: 1.2 g | KIDNEY_TOTAL [5]: 2.4 g | KIDNEY_L [6]: 1.2 g | KIDNEY_R [6]: 1.2 g | KIDNEY_TOTAL [6]: 2.5 g | ALP [4]: 1284.2 IU/L | ALT [4]: 41.2 IU/L | AST [4]: 74.6 IU/L | CRE [4]: 0.1 mg/dL | Ca [4]: 10.4 mg/dL | Cl [4]: 106.2 meq/L | DBIL [4]: 0 mg/dL | GLC [4]: 182.8 mg/dL | IP [4]: 8.5 mg/dL | K [4]: 4.2 meq/L | LDH [4]: 175.6 IU/L | RALB [4]: 3 g/dL | TBIL [4]: 0.016 mg/dL | TC [4]: 84 mg/dL | TG [4]: 77.4 mg/dL | TP [4]: 5.7 g/dL | gamma-GTP [4]: 1.6 IU/L | ALP [5]: 1222.6 IU/L | ALT [5]: 46.8 IU/L | AST [5]: 80.6 IU/L | CRE [5]: 0.2 mg/dL | Ca [5]: 10.6 mg/dL | Cl [5]: 105.8 meq/L | DBIL [5]: 0 mg/dL | GLC [5]: 184.8 mg/dL | IP [5]: 8 mg/dL | K [5]: 4.2 meq/L | LDH [5]: 140.2 IU/L | RALB [5]: 3.1 g/dL | TBIL [5]: 0.022 mg/dL | TC [5]: 80.4 mg/dL | TG [5]: 83.4 mg/dL | TP [5]: 5.8 g/dL | gamma-GTP [5]: 2 IU/L | ALP [6]: 1068.4 IU/L | ALT [6]: 53.8 IU/L | AST [6]: 85.4 IU/L | CRE [6]: 0.2 mg/dL | Ca [6]: 10.4 mg/dL | Cl [6]: 106.2 meq/L | DBIL [6]: 0 mg/dL | GLC [6]: 180.8 mg/dL | IP [6]: 7.8 mg/dL | K [6]: 4.2 meq/L | LDH [6]: 163 IU/L | RALB [6]: 3.2 g/dL | TBIL [6]: 0.034 mg/dL | TC [6]: 80.2 mg/dL | TG [6]: 77 mg/dL | TP [6]: 6 g/dL | gamma-GTP [6]: 2.6 IU/L

— ChEMBL document CHEMBL3885861, “Open TG-GATES”
